Results on ten molecules are retold here after patent EP2103614A1, “Substituted imidazopyrimidine, imidazopyrazine and imidazopyridazine derivatives as melanocortin-4 receptor modulators” (Santhera Pharmaceuticals (Schweiz) AG, priority 2008, dated 2009).

Read-outs that look alike come from different tables or passages of the source.

For assay [1], the target named is T1, hMC-4R (Homo sapiens, UniProt P32245).
T1 construct: expressed in transfected cells; host or cells: HEK293
In words: Functional assay (membrane based cAMP fluorescence polarization, agonistic activity). The class given is biochemical. The note with it: cAMP produced compared to stimulation with NDP-alpha-MSH; read-out: % activation functional assay. The method, then:
Agonistic activity of human melanocortin receptors is determined in a homogeneous membrane based assay.
Membrane preparations from HEK293 cells expressing the human melanocortin receptors are added. After a short preincubation period, an appropriate amount of ATP, GTP and the cAMP antibody is added and the plate is further incubated before the fluorescence labeled cAMP conjugate is dispensed. The plate is incubated for 2 h at 4°C before it is read on a fluorescence polarization microplate reader. The amount of cAMP produced as a response to a test compound is compared to the production of cAMP resulting from stimulation with NDP-alpha-MSH.

The target of assay [2] is T1, hMC-4R. Kind of assay: Membrane binding assay (fluorescence polarization, competition with fluorescence labeled NDP-alpha-MSH). On the technique in general: Polarisation of emitted light reports the rotation of a fluorescent probe.
[3] abbreviates: HEK293 cell membrane preparations expressing human melanocortin receptors, 5 h at room temperature, read-out: hMC-4R binding assay IC50/µM.

T1 sequence (P32245 whole entry): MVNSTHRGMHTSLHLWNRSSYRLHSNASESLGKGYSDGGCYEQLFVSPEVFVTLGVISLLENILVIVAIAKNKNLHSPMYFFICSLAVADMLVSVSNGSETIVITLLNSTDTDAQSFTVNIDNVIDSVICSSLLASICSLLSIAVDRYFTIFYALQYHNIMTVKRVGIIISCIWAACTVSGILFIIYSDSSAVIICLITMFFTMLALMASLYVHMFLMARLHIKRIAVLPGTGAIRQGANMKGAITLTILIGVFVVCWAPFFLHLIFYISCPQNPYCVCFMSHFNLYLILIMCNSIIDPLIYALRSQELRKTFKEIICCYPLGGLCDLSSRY

`COc1ccc(Nc2nc3ccc(C(=O)N(CCC(C)C)CCC(C)C)nn3c2CCCN)cc1` [Example 1]: the Emax at hMC-4R [1] was determined as 0%. The molecule further yielded an IC50 at hMC-4R [2] of 0.49 µM.
The matching figures for `CC(C)CCN(CCC(C)C)C(=O)c1ccc2nc(-c3ccc4c(c3)OCCO4)c(CCCN)n2n1` [Example 2]: 0% and 1.1 µM.
Regarding `CC(C)CCN(CCC(C)C)C(=O)c1ccc2nc(-c3ccc4c(c3)OCCO4)c(CCCN3CCCCC3)n2n1` [Example 3], the Emax on hMC-4R [1] was determined as 0%. Moreover, the IC50 on hMC-4R [2] (setting [3]) was 0.12 µM.
As to `CC(C)CCN(CCC(C)C)C(=O)c1ccc2nc(-c3ccc(C#N)cc3)c(CCCN3CCCC3)n2n1` [Example 4], the Emax on hMC-4R [1] came out at 0%. On hMC-4R [2], this molecule came in with an IC50 of 0.3 µM.
The corresponding values for `CC(C)CCN(CCC(C)C)C(=O)c1cnc2nc(-c3ccc(C#N)cc3)c(CCCN3CCCC3)n2c1` [Example 5] are 0% and 0.18 µM.
For the molecule `CC(C)CCN(CCC(C)C)C(=O)c1cnc2nc(-c3ccc(C#N)cc3)c(CCCN(C)C)n2c1` [Example 6], on hMC-4R [1], the Emax is 0%. The IC50 at hMC-4R [2] was 1 µM.
With `CC(C)CCN(CCC(C)C)C(=O)c1cn2c(CCCN3CCCC3)c(-c3ccc(C#N)cc3)nc2cn1` [Example 7], the Emax at hMC-4R [1] worked out at 0%. The IC50 on hMC-4R [2] was 0.02 µM.
With `CC(C)CCN(CCC(C)C)C(=O)c1cn2c(CCCN(C)C)c(-c3ccc(C#N)cc3)nc2cn1` [Example 8], on hMC-4R [1], the Emax came to 0%. Besides, on hMC-4R [2] (setting [3]), the IC50 came to 0.19 µM.
Consider `CC(C)CCN(CCC(C)C)C(=O)c1cn2c(CCCN3CCCC3)c(-c3ccc(C(N)=O)cc3)nc2cn1` [Example 9], for which the Emax at hMC-4R [1] came out at 0%. For the same molecule, at hMC-4R [2] (setting [3]), the IC50 came to 0.048 µM.
`CC(C)CCN(CCC(C)C)C(=O)c1cn2c(CCCN(C)C)c(-c3ccc(C(N)=O)cc3)nc2cn1` [Example 10]: the Emax at hMC-4R [1] was determined as 0%. The molecule also registered an IC50 at hMC-4R [2] of 0.28 µM.
